Results from patent US8951999B2, “Compounds” (Orexo AB, priority 2009, dated 2015).

Assays:
[1] = biological target: T1, recombinant human mPGES-1 (Homo sapiens, UniProt O14684); assay: Assay A: mPGES-1 enzyme assay (HTRF detection of PGE2); type: biochemical; details: biological assay A (compounds 1-41, 54, 55, 62, 73); PGE2 formation from PGH2, HTRF; read-out: mPGES-1 inhibitory effect IC50
T1 sequence (O14684 1-152): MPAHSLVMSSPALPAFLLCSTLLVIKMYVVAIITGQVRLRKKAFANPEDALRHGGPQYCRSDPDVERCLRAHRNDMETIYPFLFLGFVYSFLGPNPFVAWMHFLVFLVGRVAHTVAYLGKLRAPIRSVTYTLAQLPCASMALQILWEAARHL
Text: Assay A: mPGES-1 Enzyme Assay
The basis of the assay used is to measure the inhibition of microsomal prostaglandin E2 synthase-1 (mPGES-1) dependent prostaglandin (PG) E2 formation from PGH2 by different compounds. Thus, the formation of PGE2 is used as signal and a lowering of this signal can be interpreted as inhibition of mPGES-1. Similar assays to measure inhibition of mPGES-1 have previously been described in the literature.
• Glutathione (Sigma, G-4251) • Freeze culture in Rosetta E coli expression strain. • LB growth media with Ampillicillin (Amp) final concentration in culture 50 μg/mL • Chloroamphenicol stock 34 mg/mL (chloro) final concentration in culture 34 μg/mL • Sterile growth flasks for 500 mL-1 liter cultures • 0.1 M KPi buffer pH 7.4 • 9.25% HCl • PGH2 (0.25 mM) • Fe (II) Cl2 tetrahydrate, 99% (Sigma, 220229) • 384-well plate with compounds • 96-well plate, polypropylene (Thermo fast 96 skirted VWR) • 384-well plate polypropylene PCR plate (Greiner 785201) • Greiner 384-well plate pp (In vitro cat. no. 781280) • Adhesive sealing film for 96-well plates (Sigma-Aldrich) • Aluminium foil (PCR foil, 310-0030-127-471 from Labora) • PBS (GIBCO 14040) • Prostaglandin E2 Assay (Cisbio, cat. no. 62P2APEC) • Biomek FX robot (Beckman Coulter) • Biomek NX robot (Beckman Coulter) • Multidrop; micro or combi (ThermoLabsystems) • Plate reader: Safire2 (Tecan)
Microsomes from Rosetta E. coli bacteria expressing recombinant human mPGES-1 can be derived as described below:
Inoculate 5 mL LB with Amp and Chloro with bacteria from freeze culture. Incubate over night at 37° C. with 200 rpm. Thereafter, inoculate 500-800 mL LB containing Amp and Chloro with the 5 mL on culture and grow to OD640 of 0.6-0.8. Chill the culture to +4° C. before induction. Induce the culture with IPTG at a final concentration of 400 μM. Express the protein at room temp 18-23° C. with 200 rpm shaking over night.
The following steps can be performed on the following day: • 1. Spin down the cells in 250 mL centrifuge flasks for 15 min at 7000 rpm • 2. Dissolve the pellet from 250 mL culture in 12.5 mL homogenization buffer • 3. Disintegrate the cells by sonication, 4×10 seconds at 35% amplitude • 4. Add 2.5 mL MgCl2 (100 mM) and DNase 12.5 μL (0.8 mg/mL) and incubate on ice for 30 min • 5. Spin down the bacteria debris and save the supernatant, 7000 rpm for 15 min • 6. Isolate the protein containing membranes in the supernatant by ultracentrifugation 45000×g for 1 hour. • 7. Discard the supernatant and dissolve the pellet in 20 mM KPi buffer and aliquot the enzyme and store aliquots at −80° C.
Before each experiment is performed an aliquot of the enzyme is thawed and it can then be dissolved in 0.1 M KPi pH 7.4 buffer containing 2.5 mM GSH. 50 μL of this enzyme solution is subsequently dispensed in a 384-well plate at room temperature. 0.5 μL of the inhibitor dissolved in DMSO is thereafter added to each well and incubated for 25 minutes at room temperature. Subsequently, 2 μL of PGH2 dissolved in an appropriate solvent is added to each well and after one minute at room temperature, the acidified stop solution containing FeCl2 is added. 4 μL of the total volume is transferred to a separate plate and diluted 750-fold in two separate steps before quantification of PGE2.
In order to quantitate the amount of PGE2 that has been formed, a homogenous time resolved fluorescent (HTRF) detection of PGE2 can be performed by the use of a commercially available kit from CisBio essentially according to the manufacturer's protocol. […]

[2] = biological target: T1, recombinant human mPGES-1; assay: Assay B: mPGES-1 enzyme assay (modified); type: biochemical; details: biological assay B (all other compounds); PGH2 final conc. 2 μM, HTRF; read-out: mPGES-1 inhibitory effect IC50
Outline: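 Microsomal recombinant human mPGES-1 preincubated 25 min at room temperature with compound in pH 7.4 phosphate buffer containing 2.5 mmol/L GSH; reaction started with 2 μM PGH2 (final), stopped with FeCl2 after 60 s. PGE2 quantified by HTRF against calibration curve; IC50 by nonlinear regression after background subtraction.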

Row | IC50 [1] | IC50 [2] | SMILES
1 | ~900 nM | – | O=C(NCc1ccc(Cl)c(C(=O)Nc2ccc(Cl)c(C(=O)NC3CC3)c2)c1)c1ccc(Cl)s1 [Example 10, N-[4-Chloro-3-cyclopropylaminocarbonyl-phenyl]-2-chloro-5-(5-chloro-thien-2-yl)carbonylaminomethyl-benzamide]
2 | 3 nM | – | CC(C)(C)C(=O)NCc1ccc(Cl)c(C(=O)Nc2ccc(OCC(F)(F)F)c(C(=O)NCC3CC3)c2)c1 [Example 41]
3 | 5 nM | – | CC(C)(C)C(=O)NCc1ccc(Cl)c(C(=O)Nc2ccc(OCC(F)F)c(C(=O)NCC#Cc3ccccc3)c2)c1 [Example 40]
4 | 11 nM | – | CN(C)c1ccc(NC(=O)c2cc(CNC(=O)C(C)(C)C)ccc2Cl)cc1C(=O)N[C@H]1CC[C@H](C(F)(F)F)CC1 [Example 62, N-[4-(dimethylamino)-3-(trans-4-trifluoromethylcyclohexyl)aminocarbonyl-phenyl]-2-chloro-5-(tert-butylcarbonylamino)methyl-benzamide]
5 | 4 nM | – | COc1ccc(NC(=O)c2cc(CNC(=O)C3(O)CC3)ccc2Cl)cc1C(=O)Nc1ccc(Br)cc1 [Example 28]
6 | 2 nM | – | COc1ccc(NC(=O)c2cc(CNC(=O)C3(C(F)(F)F)CC3)ccc2Cl)cc1C(=O)Nc1ccc(Br)cc1 [Example 31]
7 | 4 nM | – | CC(C)(C)C(=O)NCc1ccc(Cl)c(C(=O)Nc2ccc(OCC(F)F)c(C(=O)NCC3CC3(C)C)c2)c1 (stereo not drawn) [Example 14]
8 | 2 nM | – | COc1ccc(NC(=O)c2cc(CNC(=O)c3cccnc3Cl)ccc2Cl)cc1C(=O)Nc1ccc(Br)cc1 [Example 24]
9 | 18 nM | – | CC(C)(C)C(=O)NCc1ccc(Cl)c(C(=O)Nc2ccc(F)c(C(=O)Nc3ccc(Br)cc3)c2F)c1 [Example 39]
10 | 1 nM | – | COc1ccc(NC(=O)c2cc(CNC(=O)c3c(F)ccc(F)c3Cl)ccc2Cl)cc1C(=O)Nc1ccc(Br)cc1 [Example 23]
11 | 1 nM | – | CC1CCN(c2ccc(NC(=O)c3cc(CNC(=O)C(C)(C)C)ccc3Cl)cc2C(=O)Nc2ccc(Br)cc2)CC1 [Example 37, N-[4-(4-Methyl-piperidin-1-yl)-3-(4-bromophenyl)aminocarbonyl-phenyl]-2-chloro-5-(tert-butylcarbonylamino)methyl-benzamide]
12 | 14 nM | – | COc1ccc(NC(=O)c2cc(CNC(=O)C(C)(C)C)ccc2Cl)cc1C(=O)NCc1ccccc1C(F)(F)F [Example 16]
13 | 2 nM | – | COc1ccc(NC(=O)c2cc(CNC(=O)C(C)C(F)(F)F)ccc2Cl)cc1C(=O)Nc1ccc(Br)cc1 (stereo not drawn) [Example 32]
14 | 1 nM | – | COc1ccc(NC(=O)c2cc(CNC(=O)C(C)(C)C)ccc2Cl)cc1C(=O)Nc1ccc(Br)cc1 [Example 4, N-[4-Methoxy-3-(4-bromophenyl)aminocarbonyl-phenyl]-2-chloro-5-(tert-butylcarbonylamino)methyl-benzamide]
15 | 7 nM | – | COc1ccc(NC(=O)c2cc(CNC(=O)C(C)(C)C)ccc2Cl)cc1C(=O)Nc1cc(C(F)(F)F)ccn1 [Example 8, N-[4-Methoxy-3-(4-trifluoromethyl-pyridin-2-yl)aminocarbonyl-phenyl]-2-chloro-5-(tert-butylcarbonylamino)methyl-benzamide]
16 | 22 nM | – | CC(C)(C)C(=O)NCc1ccc(Cl)c(C(=O)Nc2ccc(Cl)c(C(=O)Nc3ccc(Br)cc3)c2)c1 [Example 3, N-[4-Chloro-3-(4-bromophenyl)aminocarbonyl-phenyl]-2-chloro-5-(tert-butylcarbonylamino)methyl-benzamide]
17 | 2 nM | – | COc1ccc(NC(=O)c2cc(CNC(=O)C3(C(F)(F)F)CCCC3)ccc2Cl)cc1C(=O)Nc1ccc(Br)cc1 [Example 22]
18 | 2 nM | – | COc1ccc(NC(=O)c2cc(CNC(=O)C(C)(C)C)ccc2Cl)cc1C(=O)N[C@H]1CC[C@H](C(C)(C)C)CC1 [Example 18]

Row | IC50 [1] | IC50 [2] | SMILES
19 | 2 nM | – | CCC(C)(CC)C(=O)NCc1ccc(Cl)c(C(=O)Nc2ccc(OC)c(C(=O)Nc3ccc(Br)cc3)c2)c1 [Example 34]
20 | ~1800 nM | – | O=C(Nc1ccc(Cl)c(C(=O)NC2CC2)c1)c1cc(CNC(=O)C2CC2)ccc1Cl [Example 21]
21 | ~3000 nM | – | CC(C)(C)C(=O)NCc1ccc(Cl)c(C(=O)Nc2ccc(Cl)c(C(=O)NC3CC3)c2)c1 [Example 20]
22 | 16 nM | – | COc1ccc(NC(=O)c2cc(CNC(=O)C(C)(C)C)ccc2Cl)cc1C(=O)NC1CCCCC1 [Example 17]
23 | 4 nM | – | COc1ccc(NC(=O)c2cc(CNC(=O)C(C)(C)C)ccc2Cl)cc1C(=O)N[C@H]1CC[C@@H](C(F)(F)F)CC1 [Example 19]
24 | 13 nM | – | CC(C)(C)C(=O)NCc1ccc(Cl)c(C(=O)Nc2ccc(OCC(F)F)c(C(=O)NCC3CC3)c2)c1 [Example 13]
25 | – | 10 nM | COCCOc1ccc(NC(=O)c2cc(CNC(=O)C(C)(C)C)ccc2Cl)cc1C(=O)N[C@H]1CC[C@H](C(F)(F)F)CC1 [Example 71]
26 | – | 5 nM | CC(C)(C(=O)NCc1ccc(Cl)c(C(=O)Nc2ccc(OCC(F)F)c(C(=O)NCc3ncccc3C(F)(F)F)c2)c1)C(F)(F)F [Example 138]
27 | – | 6 nM | COc1cc(Cl)ccc1NC(=O)c1cc(NC(=O)c2cc(CNC(=O)C(C)(C)C(F)(F)F)ccc2Cl)ccc1OCC(F)F [Example 91]
28 | – | 8 nM | CC(C)(C#N)C(=O)NCc1ccc(Cl)c(C(=O)Nc2ccc(OCC(F)F)c(C(=O)Nc3ccc(Br)cc3)c2)c1 [Example 165]
29 | – | 1 nM | CC(NC(=O)c1cc(NC(=O)c2c(Cl)ccc(CNC(=O)C(C)(C)C(F)(F)F)c2Cl)ccc1OCC(F)F)C1CC1 (stereo not drawn) [Example 148]
30 | – | 9 nM | COCC1(CNC(=O)c2cc(NC(=O)c3cc(CNC(=O)C(C)(C)C(F)(F)F)ccc3Cl)ccc2OCC(F)F)CCCC1 [Example 88]
31 | – | 3 nM | CC(C)(C)C(=O)NCc1ccc(Cl)c(C(=O)Nc2ccc(N3CCC(C(F)(F)F)CC3)c(C(=O)N[C@H]3CC[C@H](C(F)(F)F)CC3)c2)c1 [Example 58, N-[4-(4-Trifluoromethyl-piperidin-1-yl)-3-(trans-4-trifluoromethylcyclohexyl)aminocarbonyl-phenyl]-2-chloro-5-(tert-butylcarbonylamino)methyl-benzamide]
32 | – | 6 nM | CC(N)(C(=O)NCc1ccc(Cl)c(C(=O)Nc2ccc(OCC(F)F)c(C(=O)Nc3ccc(Br)cc3)c2)c1)C(F)(F)F (stereo not drawn) [Example 171]
33 | – | 7 nM | COc1cc(NC(=O)c2cc(NC(=O)c3cc(CNC(=O)C(C)(C)C(F)(F)F)ccc3Cl)ccc2OCC(F)F)ccc1Br [Example 120]
34 | – | 237 nM | CC(C)(C(=O)NCc1ccc(Cl)c(C(=O)Nc2ccc(OCC(F)F)c(C(=O)NC3CCC(CO)CC3)c2)c1)C(F)(F)F (stereo not drawn) [Example 103]
35 | – | 5 nM | CC(C)(C(=O)NCc1ccc(Cl)c(C(=O)Nc2ccc(OCC(F)F)c(C(=O)Nc3ccc(Br)cc3F)c2)c1)C(F)(F)F [Example 100]
36 | – | 4 nM | Cc1ccc(CNC(=O)C(C)(C)C)c(Cl)c1C(=O)Nc1ccc(OCC(F)F)c(C(=O)Nc2ccc(Br)cc2)c1 [Example 52, N-[4-(2,2-Difluoroethyl)oxy-3-(4-bromophenyl)aminocarbonyl-phenyl]-2-chloro-6-methyl-3-(tert-butylcarbonylamino)methyl-benzamide]
